The melting point is the temperature of the solid-liquid transition.

Each structure is given as a SMILES string.

Data set [1] addresses T1, human PPARα ligand binding domain (LBD) (Homo sapiens, UniProt Q07869).
T1 construct: human PPARα (S167-Y468); expressed in transfected cells; host or cells: HEK293
T1 sequence (Q07869 167-468): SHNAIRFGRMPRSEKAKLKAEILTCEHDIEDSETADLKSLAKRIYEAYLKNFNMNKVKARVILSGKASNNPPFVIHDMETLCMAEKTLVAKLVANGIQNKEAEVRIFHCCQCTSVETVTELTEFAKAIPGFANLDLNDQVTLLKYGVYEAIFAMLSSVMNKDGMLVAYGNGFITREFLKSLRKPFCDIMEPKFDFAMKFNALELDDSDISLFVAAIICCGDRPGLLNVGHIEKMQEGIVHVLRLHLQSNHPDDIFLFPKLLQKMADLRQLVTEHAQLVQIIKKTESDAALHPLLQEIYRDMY
As to the kind of experiment: Cell-based GAL4 PPAR transactivation assay in HEK293 cells, PPARα. Conditions: 24 h. Here is the method: (§1) The peroxisome proliferator-activated receptors (PPARs), PPARα, PPARδ, and PPARγ are ligand-dependent transcription factors that control expression of several key metabolism-associated genes. The transcriptional activity of representative compounds of formula I to these receptors was assessed using a cell-based GAL4 transactivation assay in HEK293 cells transfected with either PPARα, PPARδ, or PPARγ ligand binding domain (LBD), and was compared to that of the full control agonists GW7647 (PPARα), GW0742 (PPARδ), and rosiglitazone (PPARγ).
(§2) Plasmids: The hinge region and ligand binding domain (LBD) from human PPARα (S167-Y468), PPARδ (S139-Y440) and PPARγ (S176-Y477) were PCR-amplified from a PPARα cDNA clone (cDNA Resource Center, http://www.cdna.org) or from PPARδ1 and PPARγ1 LBD gBlocks™ gene fragments (Integrated DNA Technologies). The PPAR LBD PCR products were inserted in frame with the GAL4 DNA binding domain in the pFN26A(BIND)-hRlu-neo Flexi vector (Promega) at SgfI and PmeI sites to generate GAL4-PPAR-Rluc.
(§3) Cell-based PPAR transactivation assay. HEK293 cells were co-transfected with pGL4.35[luc2P/9XGAL4UAS/Hygro] (Promega) and GAL4-PPAR-Rluc plasmids, and after 24 h of incubation were treated with compounds for 24 h. Luciferase activity was determined with the Dual Glo™ luciferase assay (Promega). Firefly luminescence was normalized to the constitutively expressed Renilla luminescence, and results expressed as fold induction of vehicle control or percentage of reference agonist maximal activity.

Data set [2] addresses T2, human PPARγ ligand binding domain (LBD) (Homo sapiens, UniProt P37231).
T2 construct: PPARγ (S176-Y477); host or cells: HEK293
T2 sequence (P37231 176-477 isoform P37231-2): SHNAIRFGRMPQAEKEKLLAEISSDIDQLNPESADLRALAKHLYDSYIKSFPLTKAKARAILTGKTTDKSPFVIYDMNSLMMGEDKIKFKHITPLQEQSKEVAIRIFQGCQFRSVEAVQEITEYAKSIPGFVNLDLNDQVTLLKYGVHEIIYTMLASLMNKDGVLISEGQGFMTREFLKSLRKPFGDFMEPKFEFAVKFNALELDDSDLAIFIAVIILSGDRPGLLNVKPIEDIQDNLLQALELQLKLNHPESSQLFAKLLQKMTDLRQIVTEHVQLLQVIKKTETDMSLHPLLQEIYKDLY
The data set is described as follows: Cell-based GAL4 PPAR transactivation assay in HEK293 cells, PPARγ. Conditions: 24 h. Here is the method:
as §1, §2, §3

In data set [3] the target is T3, human PPARδ ligand binding domain (LBD) (Homo sapiens, UniProt Q03181).
T3 construct: PPARδ (S139-Y440); host or cells: HEK293
T3 sequence (Q03181 139-441 limits assumed): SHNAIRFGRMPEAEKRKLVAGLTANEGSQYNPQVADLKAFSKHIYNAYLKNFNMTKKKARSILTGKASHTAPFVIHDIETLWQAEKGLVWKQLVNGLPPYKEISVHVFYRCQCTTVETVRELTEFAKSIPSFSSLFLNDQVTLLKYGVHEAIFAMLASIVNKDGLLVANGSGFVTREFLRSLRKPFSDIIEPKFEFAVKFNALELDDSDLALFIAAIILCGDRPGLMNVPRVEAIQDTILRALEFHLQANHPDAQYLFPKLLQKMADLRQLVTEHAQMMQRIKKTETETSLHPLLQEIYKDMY
As to the kind of experiment: Cell-based GAL4 PPAR transactivation assay in HEK293 cells, PPARδ. Conditions: 24 h. The protocol: as §1, §2, §3

As for `CCCCCCC1CC1C(=O)C(=O)[O-].[Na+]` (stereo not shown), the “PPARα (GAL4 reporter) % efficacity relative to GW7647” value in data set [1] was 34%. For the same compound, in data set [2], the “PPARγ (GAL4 reporter) % efficacity relative to rosiglitazone” value is on record as 2%. Also, the “PPARδ (GAL4 reporter) % efficacity relative to GW0742” value in data set [3] is −3%.
Regarding `[2H]C1([2H])C(CCCCCC)C1CC(=O)[O-].[Na+]` (stereo not shown), the “PPARα (GAL4 reporter) % efficacity relative to GW7647” value in data set [1] is 20%. In addition, the “PPARγ (GAL4 reporter) % efficacity relative to rosiglitazone” value in data set [2] came out at 3%. For the same compound, the “PPARδ (GAL4 reporter) % efficacity relative to GW0742” value in data set [3] is 2%.
On to `CC1(C)CC1CCCCC/C=C/C(=O)[O-].[Na+]` (stereo not shown), for which, in data set [1], the “PPARα (GAL4 reporter) % efficacity relative to GW7647” value was determined as 10%. In data set [2], the “PPARγ (GAL4 reporter) % efficacity relative to rosiglitazone” value is on record as 1%. The “PPARδ (GAL4 reporter) % efficacity relative to GW0742” value in data set [3] came out at 30%.
Take `CCCCCCCC1CC1C(=O)[O-].[Na+]` (stereo not shown): the “PPARα (GAL4 reporter) % efficacity relative to GW7647” value in data set [1] stood at 90%. Further, the “PPARγ (GAL4 reporter) % efficacity relative to rosiglitazone” value in data set [2] turned out to be 16%. For the same compound, the “PPARδ (GAL4 reporter) % efficacity relative to GW0742” value in data set [3] stood at 4%.
`CC1(C)CC1CCCCC1CC1C(=O)[O-].[Na+]` (stereo not shown): in data set [1], the “PPARα (GAL4 reporter) % efficacity relative to GW7647” value is listed as 43%. For the same compound, in data set [2], the “PPARγ (GAL4 reporter) % efficacity relative to rosiglitazone” value was 5%. Besides, the “PPARδ (GAL4 reporter) % efficacity relative to GW0742” value in data set [3] stood at 5%.
`CCCCCCC1C(CC(=O)[O-])C1(Br)Br.[Na+]` (stereo not shown) [Compound II, Sodium 2-(2,2-dibromo-3-hexylcyclopropyl)acetate] returned a melting point of 108 to 111 °C.
As to `CCCCCCC1C(CC(=O)[O-])C1(C)C.[Na+]` (stereo not shown) [drawing 322], in data set [1], the “PPARα (GAL4 reporter) % efficacity relative to GW7647” value was found to be 91%. Besides, the “PPARγ (GAL4 reporter) % efficacity relative to rosiglitazone” value in data set [2] stood at 8%. Also, the “PPARδ (GAL4 reporter) % efficacity relative to GW0742” value in data set [3] worked out at 2%.
On to `CCCCCCC1C(CC(=O)[O-])C1(C)C.[Na+]` (stereo not shown) [drawing 323], for which the “PPARα (GAL4 reporter) % efficacity relative to GW7647” value in data set [1] turned out to be 33%. Moreover, in data set [2], the “PPARγ (GAL4 reporter) % efficacity relative to rosiglitazone” value was 4%. Also, in data set [3], the “PPARδ (GAL4 reporter) % efficacity relative to GW0742” value is −6%.

The values above are taken from patent US20230107538A1, “CYCLOALKYL-CONTAINING CARBOXYLIC ACIDS AND USES THEREOF” (LIMINAL BIOSCIENCES LIMITED, priority 2019, published 2023).
